Among the data in PMC6099102, “Effect of the Nature of Donor Atoms on the Thermodynamic, Kinetic and Relaxation Properties of Mn(II) Complexes Formed With Some Trisubstituted 12-Membered Macrocyclic Ligands” (Frontiers in Chemistry, 2018) are r1p values, retold here.

This data set in a line: Longitudinal water proton relaxivity (r1p) of the Mn(II) complexes. The class given is physicochemical. As to conditions: 0.5 T field strength, 25 °C and pH = 7.4. On the procedure:
The relaxometric data were collected using a Bruker Minispec MQ20 NMR relaxometer. […] A datapoint plotted on figures represents an average of 5–6 T1 measurements (Figures S3–S9 in Supplementary Material). The data were fitted by using the molar r1p relaxivity value of the MnCl2 ([…] at 0.49 T and 25 °C). The equilibrium constants were calculated using the PSEQUAD program (Zékány and Nagypál, [1985]).
The longitudinal water proton relaxation rates (r1 = 1/T1-1/Tw) were measured at 20 MHz with a Bruker Minispec MQ-20 relaxometer (Bruker Biospin, Germany). Samples were thermostated by using a circulating water bath at 25.0 ± 0.2 °C. The longitudinal relaxation times (T1) were measured by the inversion-recovery method (180° − τ − 90°), averaging 5–6 data points collected for each concentration point obtained from 14 different τ values (τ values ranging between 0 to at least 6 times the expected T1). The relaxivity of the complexes was determined by titrating a nearly 1.0 mM ligand solution with a Mn(II) stock solution at pH = 7.22–7.43 (50 mM HEPES buffer, I = 0.15 M NaCl, 25 °C). Under these conditions, the only Mn(II) ion containing species present in solution is the [Mn(L)], which was supported by the r1 vs. pH profiles. The relaxivity of the complex was determined as the slope of the strait line obtained by plotting 1/T1p values as a function of Mn(II) concentration for samples with [Ligand] > [Mn(II)]. The relaxivity of [Mn(DOTP)]^6− and [Mn(DO3P)]^4− was determined in the pH range of 10.0–11.0 and 8.5–9.3, respectively where mainly the [Mn(DO3P)]^4− and [Mn(DOTP)]^6− complex exists in solution (Figures S4 and S9 in Supplementary Material).
The relaxivity (r1p, mM^−1s^−1) is defined as the longitudinal water proton relaxation rate in a solution containing 1.0 mM concentration of the paramagnetic species. It characterizes the efficiency of a paramagnetic metal chelate to enhance the solvent proton relaxation rate at a given magnetic field (usually 20 MHz) and temperature. The inner-sphere contribution to relaxivity is directly proportional to the number of metal bound water molecules (q), and therefore, relaxivity values may provide some useful information on the hydration state of paramagnetic complexes of similar molecular weights and electronic relaxation times. […] The r1p values of the Mn(II) complexes formed with heptadentate 12-membered macrocyclic ligands were determined at 0.5 T field strength and 25 °C and reported in Table 4 along with some relaxivity data published for the complexes of hexa-, hepta- and octadentate ligands. […] Below these pH ranges the phosphonate moieties undergo protonation, which further increases the relaxivity (2.60–2.90 mM^−1s^−1 values were observed near pH = 7.4, see Supplementary Material). Similar increase in the relaxivity (to 3.20 mM^−1s^−1 at 20 MHz, 37 °C) is observed for the [Mn(DOTA)]^2− complex upon its protonation and formation of the thermodynamically stable diprotonated [Mn(H2DOTA)] complex that exists as a non-hydrated chelate both in solution and in the solid state (Wang and Westmoreland, [2009]). The relaxivity of the diprotonated species at t → 0 time point was determined from the extrapolation of the relaxivity vs. time data collected after acidification of the samples containing the complexes. The X-ray crystallographic structure of [Mn(H2DOTA)] indicates the protonation of two trans carboxylate moieties (e.g., the coordination around the metal ion is similar to that observed in [Mn(trans-DO2A)] as determined by DFT calculations). Thus, the relaxivity of the diprotonated [Mn(H2DOTA)] and [Mn(H2DOTMA)] complexes is expected to be similar to that of [Mn(trans-DO2A)] (when q = 0). The value obtained by us is considerably higher, which highlights the importance of prototropic exchange as a useful tool to improve the relaxivity of the complexes (however, it has to be underlined that the protonation of the complex generally leads to a decrease in kinetic inertness).

For `O=C(CN1CCN(CC(=O)N2CCCCC2)Cc2cccc(n2)CN(CC(=O)N2CCCCC2)CC1)N1CCCCC1.[Mn+2]` [[Mn(PC3AM^Pip)]^2+], the r1p was determined as 1.28 mM⁻¹ s⁻¹.
